The results in this text go back to PubChem BioAssay (NCI).

Holding throughout (assay): growth of human tumour cells (NCI), 48 h
Experiment [1] has as its system EKVX NSCLC.
Experiment [2] has as its system OVCAR-3 ovarian.
Experiment [3] concerns PC-3 prostate.
Experiment [4] concerns OVCAR-8 ovarian.
Experiment [5] relates to HCC-2998 colon.
Experiment [6] has as its system T-47D breast.
Experiment [7] has as its system MOLT-4 leukemia.
The test system of experiment [8] is TK-10 renal.
Experiment [9] relates to SK-OV-3 ovarian.
Experiment [10] concerns SNB-19 CNS.
Experiment [11] has as its system SF-295 CNS.
Experiment [12] relates to OVCAR-4 ovarian.
Experiment [13] concerns A549 NSCLC.
The test system of experiment [14] is HCT-15 colon.
Experiment [15] deals with NCI-H23 lung.
The subject of experiment [16] is SF-539 CNS.
The test system of experiment [17] is KM12 colon.
For experiment [18], the system named is UO-31 renal.
Experiment [19] has as its system CAKI-1 renal.
Experiment [20] relates to LOX IMVI melanoma.

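Step 1: Grow cells in 96-well plates. Step 2: Expose to compound for 48 hours at 5 concentrations. Step 3: Interpolate endpoints linearly; if unreached, use highest concentration. The concentration for full growth arrest is given as TGI.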 Bounds are passed on as bounds.

Turning to `O=C(Nn1c(-c2ccccc2)nc2ccccc2c1=O)c1ccc(O)cc1`, the TGI in [1], in experiment [2], in experiment [3], in experiment [4], in [5] and in experiment [6] was above 100 µM each time. In addition, the TGI in experiment [7], in [8], in [9], in [10], in [11] and in [12] was above 100 µM throughout. Moreover, the TGI in experiment [13], in experiment [14], in experiment [15], in experiment [16], in experiment [17] and in [18] was above 100 µM each time.
With `C=CCN1C[C@@H](C)N([C@@H](c2ccccc2)c2ccc(C(=O)N(CC)CC)cc2)C[C@@H]1C`, the TGI in experiment [1], in experiment [2], in experiment [3], in [4], in experiment [6] and in [7] was above 100 µM throughout. Moreover, the TGI in [9], in experiment [10], in [11], in experiment [12], in experiment [13] and in [14] was above 100 µM throughout. The TGI in experiment [15], in experiment [19], in experiment [16], in experiment [17] and in [18] was above 100 µM in each case.
With `COC(=O)C1=C(OC(=O)/C(=C/c2c(F)cccc2F)c2ccccc2)C(C(=O)OC)[C@@]2(O)[C@@H](C(=O)OC)[C@H](C)C[C@@H]1[C@@H]2C(=O)OC` (some centres not stated), the TGI in experiment [1], in experiment [20], in experiment [2], in experiment [3], in [4] and in [6] was above 100 µM each time. The TGI in experiment [7], in experiment [8], in experiment [9], in [10], in experiment [11] and in experiment [12] was above 100 µM in each case. Also, the TGI in [13], in [14], in experiment [15], in experiment [19], in experiment [16] and in experiment [17] was above 100 µM in each case. This molecule also gave a TGI in [18] of 8.26 µM.
With `CC(C(=O)N1C(=O)N(C(=O)[C@H](C)C(O)c2ccccc2)[C@H](c2ccccc2)[C@H]1c1ccccc1)[C@@H](O)c1ccccc1` (some centres not stated), the TGI was 93.4 µM in experiment [1]; 83.6 µM in experiment [3]; above 100 µM in experiment [4]; above 100 µM in experiment [5]; above 100 µM in experiment [6]; above 100 µM in experiment [8]. Also, the TGI in experiment [9], in experiment [10], in experiment [11], in experiment [12], in [13] and in experiment [14] was above 100 µM in each case. The TGI in experiment [15] is above 100 µM; in [19] it was 72.4 µM; in experiment [16] it was 81.9 µM; in experiment [17], above 100 µM; in [18], above 100 µM.
In the case of `CC1=C2c3ccccc3N(S(=O)(=O)c3ccccc3)[C@H]2[C@H](C(=O)N2C3CC4CC[C@@]3(CS2(=O)=O)C4(C)C)CC1` (some centres not stated), the TGI in [1], in experiment [20], in experiment [2], in experiment [3], in experiment [4] and in [6] was above 100 µM throughout. Further, the TGI is 75.9 µM in [7]; above 100 µM in experiment [8]; above 100 µM in experiment [9]; above 100 µM in [10]; above 100 µM in experiment [11]; above 100 µM in experiment [12]. Also, the TGI in experiment [13], in experiment [14], in experiment [15], in experiment [19], in [16] and in experiment [17] was above 100 µM in each case. This molecule showed a TGI in experiment [18] of 54 µM.
For `O=C1NCC2(CCNCC2)N1`, the TGI in experiment [1], in experiment [20], in experiment [4], in experiment [5], in experiment [6] and in experiment [7] was above 100 µM each time. Further, the TGI in [8], in [9], in experiment [10], in experiment [11], in [12] and in experiment [13] was above 100 µM in each case. Also, the TGI in experiment [14], in experiment [15], in [16], in experiment [17] and in [18] was above 100 µM in each case.
Consider `O=C(/C=C/c1ccc(O)cc1)c1cc(O)cc(O)c1`, for which the TGI turned out to be 32.5 µM in experiment [1]; 17.3 µM in experiment [20]; 29.4 µM in experiment [2]; 23.2 µM in [3]; 27.6 µM in experiment [4]; 33 µM in experiment [6]. Also, the TGI was found to be 45.3 µM in experiment [7]; 45.8 µM in experiment [8]; 42.4 µM in experiment [9]; 30.3 µM in experiment [10]; 30.6 µM in experiment [11]; 44.6 µM in [12]. Moreover, the TGI in experiment [13] worked out at 30.6 µM; in [14], 16.9 µM; in [15] it was 43.3 µM; in [19], 43.8 µM; in [16], 26.5 µM; in experiment [18], 21.6 µM.
Take `COC(=O)C(CCSc1ccccc1)C(=O)OC`: the TGI in [1], in [2], in experiment [3], in experiment [4], in [5] and in experiment [6] was above 100 µM throughout. The TGI in experiment [7], in experiment [9], in experiment [11], in experiment [12], in [13] and in [14] was above 100 µM each time. The TGI in [15], in experiment [19], in experiment [16], in experiment [17] and in [18] was above 100 µM in each case.
For `NN/C(=N\S(=O)(=O)c1cccc2nsnc12)Nc1ccc(Cl)cc1`, the TGI in [1], in experiment [20], in [2], in experiment [3], in experiment [4] and in [6] was above 100 µM each time. The TGI in experiment [7], in experiment [8], in experiment [9], in [10], in experiment [11] and in experiment [12] was above 100 µM each time. For the same molecule, the TGI in [13], in [14], in experiment [15], in experiment [19], in experiment [16] and in [17] was above 100 µM throughout. The TGI in [18] is above 100 µM.
Consider `CCCCCCCCCCCCCCC[C@@H](O)C[N+](C)(C)CCO`, for which the TGI in experiment [1] is 37.4 µM; in experiment [2], above 93.6 µM; in experiment [4], 30 µM; in [5] it was 4.81 µM; in [6] it was 55.6 µM; in experiment [7], above 24.5 µM. Besides, the TGI in experiment [8] worked out at 2.86 µM; in experiment [9], 36 µM; in experiment [10] it was 3.81 µM; in experiment [11], 10.1 µM; in experiment [12] it was 22.9 µM; in experiment [13], 29.1 µM. In addition, the TGI in experiment [14] worked out at 14 µM; in experiment [15], 10.7 µM; in experiment [19], 4.1 µM; in [16] it was 21.8 µM; in [17], 1.4 µM; in experiment [18] it was 35.6 µM.
Turning to `CCCCCCCCCCCCCCCCNc1ccc2c(c1)OCCOCCOCCOCCO2`, the TGI in [1] was found to be 14.4 µM; in [20], 5.42 µM; in experiment [2], 8.75 µM; in experiment [3], 6.43 µM; in experiment [4], 10.8 µM; in [6], 9.2 µM. Further, the TGI in experiment [7] is 6.19 µM; in experiment [8], 25.7 µM; in experiment [9], 9.49 µM; in experiment [10], 14.2 µM; in experiment [11], 7.94 µM; in experiment [12] it was 17.6 µM. Also, the TGI in experiment [13] is 14.5 µM; in [14], 13.5 µM; in experiment [15], 11.5 µM; in experiment [19], 13.6 µM; in [16] it was 9.43 µM; in [17], 4.84 µM. In [18], the TGI is 8.88 µM.
As for `Cc1nc2ccc(S(=O)(=O)Nc3ccccc3Cl)cc2c(=O)n1NC(=O)CNc1ccccc1Cl`, the TGI in experiment [1], in experiment [20], in [2], in experiment [3], in experiment [4] and in [5] was above 100 µM each time. The TGI in [7], in experiment [8], in experiment [9], in experiment [10], in [11] and in [12] was above 100 µM in each case. Moreover, the TGI in experiment [13], in experiment [14], in experiment [15], in experiment [19], in [16] and in experiment [17] was above 100 µM in each case. In experiment [18], the TGI is above 100 µM.
Consider `CC(C)N(C(=O)c1ccc(NCc2cc(O)ccc2O)cc1)C(C)C`, for which the TGI was determined as 28.6 µM in experiment [1]; 30.4 µM in experiment [20]; 25.1 µM in experiment [2]; 52.3 µM in [3]; 35.4 µM in experiment [4]; 40.7 µM in [6]. Further, the TGI in experiment [7] was above 100 µM; in [8], 29.5 µM; in experiment [9], above 100 µM; in [10], 58.6 µM; in experiment [11], 46 µM; in experiment [12], 28.3 µM. Besides, the TGI was above 100 µM in experiment [13]; 33.6 µM in experiment [14]; 42.2 µM in experiment [15]; 27.2 µM in experiment [19]; 34 µM in experiment [16]; 21.3 µM in experiment [18].
With `COc1cc2c(cc1O)-c1c(OC)c(O)cc3c1C(C2)N(C)CC3` (configuration not stated), the TGI in experiment [1], in experiment [20], in experiment [2], in [3], in [4] and in experiment [6] was above 100 µM each time. Further, the TGI in experiment [7], in [8], in experiment [9], in experiment [10], in experiment [11] and in experiment [12] was above 100 µM in each case. Besides, the TGI in experiment [13], in experiment [14], in [15], in experiment [19], in experiment [16] and in [17] was above 100 µM each time. Also, the TGI in experiment [18] is above 100 µM.
`CCOC(=O)NC(C(C(=O)OCC)C(=O)OCC)(C(F)(F)F)C(F)(F)F`: the TGI in [1], in experiment [20], in experiment [2], in [3], in [4] and in experiment [6] was above 100 µM in each case. Moreover, the TGI in experiment [7], in experiment [8], in [10], in experiment [11], in experiment [12] and in experiment [13] was above 100 µM in each case. Besides, the TGI in [14], in [15], in experiment [19], in experiment [16], in experiment [17] and in experiment [18] was above 100 µM each time.
